Here are results for two compounds from patent US9668948B2, “Products and methods for reducing malodor from the pudendum” (priority 2009, dated 2017).

For data set [1] the following is noted: 1 gram in ... ml of water; 25° C.; cited from earlier work.
The next data set concerns Clostridium sporogenes. Kind of data set: Suppression of trimethylamine (TMA) formation from choline by bacterial culture, headspace GC/FID. The format is cell-based. Conditions: added to the culture solution (internal standard mix).

Description for Clostridium sporogenes: A viable method was developed for the assay of trimethylamine (TMA). The method utilizes triethylamine and methanol together as internal standards and choline as the substrate for generating TMA from the bacterial species. The bacterial culture for these studies was Clostridium sporogenes, which was grown in house at BioScreen.
Tests were conducted with a headspace gas chromatograph to verify that Clostridium sporogenes bacterial could actively generating trimethylamine from a choline substrate.
Equipment for the testing included a Trace GC Ultra gas chormoatograph and a Varian CP-Volamine column. An FID detector was used with 2.5 mL/min helium flow.
The bacterial species C. sporogenes, a species found in the lower GI tract. was inoculated into 100 mL of Fluid Thioglycolate medium and incubated at 35±2° C. for a minimum of 16 hours. At the end of incubation, the concentration of the bacterial suspension was confirmed by serial dilution in 9 mL PBS up to 10^−7 and anaerobic incubation at 32.5±2.5° C. for a minimum of 48 hours. Counts were recorded from dilution plates with 25 to 250 colonies. The average counts were multiplied by the reciprocal of the dilution factor to furnish the CFU/mL of the bacterial species. […]

As for `O=C(O)C(O)c1ccccc1` (centres unmarked) [mandelic acid], the “solubility in water: ml of water for 1 gram” value in data set [1] was 6.3 mL. Regarding benzalkonium chloride, the “effect on reactivity of the bacterial culture with choline” value in the data set with Clostridium sporogenes is “stops further reactivity”.
